Assay results published in PMC10375191, “Transformable Neuropeptide Prodrug with Tumor Microenvironment Responsiveness for Tumor Growth and Metastasis Inhibition of Triple‐Negative Breast Cancer” (Advanced Science, 2023).
Starred links: 1 amine or outer side, 2 acyl side, 3 side chain; linkers in the order of their positions; H or OH if unused. Residues, ends and D or L forms follow the SMILES beside them. *: point of attachment. Doxorubicin(3'-N) = COc1cccc2c1C(=O)c1c(O)c3c(c(O)c1C2=O)C[C@@](O)(C(=O)CO)C[C@@H]3O[C@H]1C[C@H](N*)[C@H](O)[C@H](C)O1; Suc = O=C(CCC(=O)[*:2])[*:1]

Key:
[1] = tested on: healthy ICR mice; experiment: Maximum tolerated dose / acute toxicity study
Text: Animal survival of each group (n = 10, 5 female and 5 male) was continuously recorded for 14 days. Eventually, the evaluation and calculation of the median lethal dose (LD50) were completed with these collected data using the Bliss rule.

[2] = tested on: MDA‐MB‐231 xenograft model; experiment: In vivo antitumor evaluation, MDA-MB-231 xenograft; design: species or system mouse; settings: MDA-MB-231 tumor-bearing nude mice; DOX-P18 up to 100 mg kg^−1 (20 mg kg^−1 DOX); DOX at 10 and 20 mg kg^−1
Text: (§1) All the animal experimental procedures were recognized and approved by the Regional Ethics Committee for Animal Experiments at Ningbo University, China (Permit NO. SYXK (Zhe) 2019‐0005). The triple‐negative breast cancer (TNBC) xenograft tumors were established on female BALB/c nude mice (≈15 g) by subcutaneous injection of MDA‐MB‐231 cells (5 × 10^6 cells in each mouse). TNBC metastasis models were constructed by injecting MDA‐MB‐231‐luc cells (1 × 10^5 cells in each mouse) through the tail vein to female BALB/c nude mice. The day that MDA‐MB‐231‐luc was injected was set as D0. In vivo imaging system (IVIS) (Lumina XRMS Ш, PerkinElmer, USA) was utilized to identify the tumor metastasis at D12.
When the tumor volume of BALB/c mice reached ≈70 mm^3 (V = L × W × W/2), the tumor‐bearing mice were randomly divided into seven groups (n = 5 for each group). […] 100 µL drug was injected intravenously through the tail vein every other day for a total of five times. The day that the first injection was given was set as D0. Tumor size and mouse weight were measured every 2 days from the day that treatment started until D26.

[3] = tested on: MDA‐MB‐231 metastasis model; experiment: Anti-metastasis evaluation, MDA-MB-231 metastasis model; type: in vivo, mouse; settings: MDA-MB-231 metastasis model, DOX 5 mg kg^−1
Text: as §1
For the TNBC metastasis model, two kinds of treatments were developed. […] After seven times of injections, continued observation of the mice was carried out. […] In vivo imaging system (IVIS Lumina XRMS Ш, PerkinElmer, USA) was utilized again to estimate the tumor metastasis at D26. Meanwhile, the mice were sacrificed and the main organs (heart, livers, spleen, lung, and kidney) were separated for histological analysis.

[4] = tested on: MDA‐MB‐231 cells; experiment: CCK-8 cell viability assay, MDA-MB-231; type: cell-based, human
Experimental: (§2) MDA‐MB‐231 cells were incubated in 96‐well plates for 24 h (1 × 10^4 cells per well). […] At the appointed time, 10 µL CCK‐8 solution was dropped into each well and further co‐incubated with treated cells for 2 h. The absorbance values at 450 nm were measured by an automated plate reader (iMark (168‐1130), Biorad, USA). The IC50 values were obtained from Microsoft Excel's FORECAST formula.

[5] = tested on: MCF‐10A cells; experiment: CCK-8 cell viability assay, MCF-10A; type: cell-based, human; settings: 24 h
Experimental: as §2
mammary epithelial cell line MCF-10A after 24 h incubation. Data are presented as
means ± standard deviations (n = 3).
(§3) (1 picture or pasted object on this page, not shown here)

[6] = tested on: MCF‐7 cells; experiment: CCK-8 cell viability assay, MCF-7; type: cell-based, human; settings: MCF-7, 24 h
Experimental: as §2
breast cancer cell line MCF-7 after 24 h incubation. Data are presented as means ±
standard deviations (n = 3).
as §3

[7] = Morphological transformation / particle size by DLS and TEM in PBS of different pH; type: physicochemical; settings: TEM, PBS pH 6.5

Which results are given for COc1cccc2c1C(=O)c1c(O)c3c(c(O)c1C2=O)C[C@@](O)(C(=O)CO)C[C@@H]3O[C@H]1C[C@H](N)[C@H](O)[C@H](C)O1 [DOX, doxorubicin, reference compound]?
Histological analysis of major organs ([1]; 14 days after single dose, 40 mg kg^−1 DOX (or DOX equivalent)): disordered arrangement of myofilaments, glomerulosclerosis, and protein casts; Blood biochemistry: ALT and ALP activity ([1]; 14 days after single injection, with increasing dose, n = 3): gradually decreased; Death / body weight in tumor-bearing mice [2]: cause death; Survival in metastasis model [3]: no mice survived up to day 14 (D14)

Which “IC50 with extended incubation time” value ([4]; MDA-MB-231, 36 and 48 h versus 24 h) does the source give for COc1cccc2c1C(=O)c1c(O)c3c(c(O)c1C2=O)C[C@@](O)(C(=O)CO)C[C@@H]3O[C@H]1C[C@H](NC(=O)CCC(=O)N2CCC[C@H]2C(=O)N[C@@H](CC(C)C)C(=O)NCC(=O)O)[C@H](O)[C@H](C)O1 [DOX‐P3] here?
Its value is “further reduced”.

With CC[C@H](C)[C@H](NC(=O)[C@@H]1CCCN1C(=O)[C@H](CC(N)=O)NC(=O)[C@H](CC(N)=O)NC(=O)[C@H](Cc1ccc(O)cc1)NC(=O)[C@H](Cc1c[nH]cn1)NC(=O)[C@H](CCCNC(=N)N)NC(=O)[C@@H](NC(=O)[C@H](CCCNC(=N)N)NC(=O)CNC(=O)CNC(=O)[C@H](CC(C)C)NC(=O)[C@@H]1CCCN1C(=O)CCC(=O)N[C@H]1C[C@H](O[C@H]2C[C@](O)(C(=O)CO)Cc3c(O)c4c(c(O)c32)C(=O)c2c(OC)cccc2C4=O)O[C@@H](C)[C@H]1O)C(C)C)C(=O)N[C@@H](Cc1c[nH]c2ccccc12)C(=O)N[C@@H](CCCNC(=N)N)C(=O)N[C@@H](CCC(N)=O)C(=O)N[C@@H](CCCNC(=N)N)C(=O)N[C@@H](Cc1ccc(O)cc1)C(N)=O [DOX‐P18R] ({Doxorubicin(3'-N)-Suc}-PLGGRVRHYNNPIWRQRY-NH2) as the molecule, how does the “IC50 (cytotoxicity), in words” value ([4]; MDA-MB-231, 24 h) read?
The value was “particularly high IC50 values”.

And the “IC50 (cytotoxicity), in words” value [5]?
The value was “particularly high IC50 values”.

And the “IC50 (cytotoxicity), in words” value [6]?
Its value is “particularly high IC50 values”.

With CC[C@H](C)[C@H](NC(=O)[C@@H]1CCCN1C(=O)[C@H](CC(N)=O)NC(=O)[C@H](CC(N)=O)NC(=O)[C@H](Cc1ccc(O)cc1)NC(=O)[C@H](Cc1c[nH]cn1)NC(=O)[C@H](CCCNC(=N)N)NC(=O)CNC(=O)[C@H](CCCNC(=N)N)NC(=O)[C@@H](N)C(C)C)C(=O)N[C@@H](Cc1c[nH]c2ccccc12)C(=O)N[C@@H](CCCNC(=N)N)C(=O)N[C@@H](CCC(N)=O)C(=O)N[C@@H](CCCNC(=N)N)C(=O)N[C@@H](Cc1ccc(O)cc1)C(N)=O [P15] (H-VRGRHYNNPIWRQRY-NH2) as the molecule, how does the “Morphology by TEM” value [7] read?
The value was “fibroid aggregations”.
